This is an account of results in the Kinase Knowledgebase extract (Sharma et al. 2016).

Bounds are passed on as bounds.

Assay [1] concerns the target PIK3CA (human) (UniProt P42336). The experiment in a line: Assessment of PIK3CA Kinase Activity.
Assay [2] has as its target PIK3CA (human), P42336 [H1047R]. Description: Assessment of PIK3CA(H1047R) Kinase Activity.
Assay [3] has as its target PIK3CA (human), P42336 [E545K]. The experiment in a line: Assessment of PIK3CA(E545K) Kinase Activity.
Assay [4] has as its target PIK3CB (Human) (UniProt P42338). Description: Assessment of PIK3CB Kinase Activity.
In assay [5] the target is PIK3CG (human) (UniProt P48736). The experiment in a line: Assessment of PIK3CG Kinase Activity.
Sequence of PIK3CG (human) (P48736 whole entry, looked up): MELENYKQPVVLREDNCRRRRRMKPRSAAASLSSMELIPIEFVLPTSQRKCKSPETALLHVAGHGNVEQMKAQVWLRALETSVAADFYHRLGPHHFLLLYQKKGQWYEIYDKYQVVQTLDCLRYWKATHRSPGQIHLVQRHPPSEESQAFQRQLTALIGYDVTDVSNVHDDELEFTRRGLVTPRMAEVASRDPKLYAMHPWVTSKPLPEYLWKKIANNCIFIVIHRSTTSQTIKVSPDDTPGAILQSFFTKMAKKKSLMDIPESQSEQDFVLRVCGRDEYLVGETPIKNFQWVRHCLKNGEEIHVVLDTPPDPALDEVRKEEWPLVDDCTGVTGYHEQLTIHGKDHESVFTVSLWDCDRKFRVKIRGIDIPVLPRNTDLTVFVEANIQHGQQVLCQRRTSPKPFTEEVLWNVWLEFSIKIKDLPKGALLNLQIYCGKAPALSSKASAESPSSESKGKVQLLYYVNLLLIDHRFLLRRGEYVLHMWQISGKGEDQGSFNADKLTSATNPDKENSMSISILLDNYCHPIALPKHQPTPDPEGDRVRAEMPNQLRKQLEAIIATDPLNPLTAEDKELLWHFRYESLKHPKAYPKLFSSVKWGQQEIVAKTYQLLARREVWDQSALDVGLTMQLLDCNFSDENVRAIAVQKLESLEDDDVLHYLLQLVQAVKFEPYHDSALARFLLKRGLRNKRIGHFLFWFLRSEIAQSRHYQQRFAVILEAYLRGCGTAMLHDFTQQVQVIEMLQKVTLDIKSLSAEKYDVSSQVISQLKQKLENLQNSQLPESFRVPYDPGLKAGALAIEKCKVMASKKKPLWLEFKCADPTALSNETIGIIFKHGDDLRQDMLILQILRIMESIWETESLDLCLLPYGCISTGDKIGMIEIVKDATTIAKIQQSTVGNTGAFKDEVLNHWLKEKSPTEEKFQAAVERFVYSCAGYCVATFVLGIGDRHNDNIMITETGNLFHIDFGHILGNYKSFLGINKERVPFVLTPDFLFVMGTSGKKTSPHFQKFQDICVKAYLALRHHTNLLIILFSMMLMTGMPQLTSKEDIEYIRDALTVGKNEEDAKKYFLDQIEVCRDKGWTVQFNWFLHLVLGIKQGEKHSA

Sequence of PIK3CA (human), P42336 [H1047R] (P42336 whole entry H1047R, looked up): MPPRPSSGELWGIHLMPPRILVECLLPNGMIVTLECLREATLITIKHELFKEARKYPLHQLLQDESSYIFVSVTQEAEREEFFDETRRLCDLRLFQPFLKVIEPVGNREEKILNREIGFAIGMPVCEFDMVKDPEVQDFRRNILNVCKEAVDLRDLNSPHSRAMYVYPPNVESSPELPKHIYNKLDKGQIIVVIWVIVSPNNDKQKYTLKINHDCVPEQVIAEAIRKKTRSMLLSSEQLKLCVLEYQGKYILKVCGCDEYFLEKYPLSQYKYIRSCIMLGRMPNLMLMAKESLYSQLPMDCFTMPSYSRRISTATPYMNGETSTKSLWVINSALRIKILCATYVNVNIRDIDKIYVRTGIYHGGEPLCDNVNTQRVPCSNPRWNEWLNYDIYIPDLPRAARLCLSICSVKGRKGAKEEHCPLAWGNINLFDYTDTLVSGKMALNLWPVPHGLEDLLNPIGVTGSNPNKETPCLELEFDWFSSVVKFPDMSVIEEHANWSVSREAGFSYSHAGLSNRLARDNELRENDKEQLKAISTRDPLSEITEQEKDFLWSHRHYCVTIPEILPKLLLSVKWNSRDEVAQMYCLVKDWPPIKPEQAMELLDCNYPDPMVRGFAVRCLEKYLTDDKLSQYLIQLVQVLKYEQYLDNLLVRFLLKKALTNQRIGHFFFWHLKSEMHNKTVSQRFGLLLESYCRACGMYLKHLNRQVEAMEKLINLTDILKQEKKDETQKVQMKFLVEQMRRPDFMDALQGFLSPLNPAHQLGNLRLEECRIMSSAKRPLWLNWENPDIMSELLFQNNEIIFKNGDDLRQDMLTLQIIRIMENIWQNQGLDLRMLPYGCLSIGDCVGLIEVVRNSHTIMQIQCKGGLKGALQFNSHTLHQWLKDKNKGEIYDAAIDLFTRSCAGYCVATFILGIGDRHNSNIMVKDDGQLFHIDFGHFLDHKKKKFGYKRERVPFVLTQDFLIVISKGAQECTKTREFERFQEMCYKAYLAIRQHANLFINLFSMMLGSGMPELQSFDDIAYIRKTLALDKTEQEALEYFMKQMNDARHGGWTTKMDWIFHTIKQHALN
Sequence of PIK3CB (Human) (P42338 whole entry, looked up): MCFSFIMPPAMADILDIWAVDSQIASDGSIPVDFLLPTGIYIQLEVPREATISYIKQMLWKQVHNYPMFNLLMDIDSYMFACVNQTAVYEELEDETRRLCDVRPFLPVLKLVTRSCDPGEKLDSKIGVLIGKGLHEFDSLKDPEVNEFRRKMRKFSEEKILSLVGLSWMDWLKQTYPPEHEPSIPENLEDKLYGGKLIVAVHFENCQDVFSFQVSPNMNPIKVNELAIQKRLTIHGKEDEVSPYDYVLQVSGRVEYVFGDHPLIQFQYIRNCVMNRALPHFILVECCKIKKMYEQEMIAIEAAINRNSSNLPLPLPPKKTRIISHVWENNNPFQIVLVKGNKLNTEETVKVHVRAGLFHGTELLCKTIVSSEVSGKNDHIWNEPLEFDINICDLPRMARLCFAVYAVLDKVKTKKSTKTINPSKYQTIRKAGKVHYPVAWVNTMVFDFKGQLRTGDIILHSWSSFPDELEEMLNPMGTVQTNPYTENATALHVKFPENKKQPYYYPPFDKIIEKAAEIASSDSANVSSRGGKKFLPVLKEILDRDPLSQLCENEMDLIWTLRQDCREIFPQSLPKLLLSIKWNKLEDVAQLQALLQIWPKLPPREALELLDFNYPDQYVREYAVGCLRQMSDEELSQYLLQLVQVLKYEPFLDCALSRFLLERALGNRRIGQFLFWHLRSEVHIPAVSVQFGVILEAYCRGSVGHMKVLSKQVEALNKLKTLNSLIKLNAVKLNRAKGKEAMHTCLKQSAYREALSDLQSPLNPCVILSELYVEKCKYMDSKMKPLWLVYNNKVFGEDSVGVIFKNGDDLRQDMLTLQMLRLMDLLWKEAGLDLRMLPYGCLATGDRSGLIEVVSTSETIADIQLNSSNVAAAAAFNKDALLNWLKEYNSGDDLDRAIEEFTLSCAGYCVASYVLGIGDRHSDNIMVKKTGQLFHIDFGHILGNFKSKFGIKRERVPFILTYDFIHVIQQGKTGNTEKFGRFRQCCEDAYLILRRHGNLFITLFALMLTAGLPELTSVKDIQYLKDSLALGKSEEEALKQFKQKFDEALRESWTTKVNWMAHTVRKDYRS
Sequence of PIK3CA (human) (P42336 whole entry, looked up): as the sequence (P42336 whole entry H1047R, looked up) above, with R1047H counted along it
Sequence of PIK3CA (human), P42336 [E545K] (P42336 whole entry E545K, looked up): as the sequence (P42336 whole entry H1047R, looked up) above, with E545K, R1047H counted along it

Broadly, the IC50 is the concentration at which inhibition is half-maximal. Low values mean greater potency, high ones weaker potency. For the compound `CN(C)C(=O)c1ccc(NC(=O)Nc2ccc(-c3nc(N4CCOCC4)c4ccc(-c5cncnc5)cc4n3)cc2)cc1`, the IC50 in assay [1], in assay [2] and in assay [3] was below 50 nM in each case.

For `CN(C)C(=O)c1ccc(NC(=O)Nc2ccc(-c3nc(N4CCOCC4)c4cc(F)c(-c5cnn(C)c5)cc4n3)cn2)cc1`, the IC50 was below 50 nM in assay [1]; below 50 nM in assay [4]; below 500 nM in assay [5]; below 50 nM in assay [2]; below 50 nM in assay [3].

Turning to `CN(C)C(=O)c1ccc(NC(=O)Nc2ccc(-c3nc(N4CCOCC4)c4ccc(-c5cccc(S(C)(=O)=O)c5)cc4n3)cn2)cc1F`, the IC50 in assay [1] is below 50 nM; in assay [4], below 50 nM; in assay [5], below 500 nM; in assay [2] it was below 50 nM; in assay [3], below 50 nM.

`Cc1ccc(-c2ccc3c(N4CCOCC4)nc(-c4ccc(NC(=O)Nc5ccc(C(=O)N(C)C)cc5)cc4)nc3c2)o1`: the IC50 in assay [1] is below 50 nM; in assay [4] it was 500 to 1000 nM; in assay [5] it was 500 to 1000 nM; in assay [2], below 50 nM; in assay [3] it was below 50 nM.

On to `CN(C)C(=O)c1ccc(NC(=O)Nc2ccc(-c3nc(N4CCOCC4)c4ccc(-c5cccnc5F)cc4n3)cc2)c(F)c1`, for which the IC50 in assay [1] lay within 50 to 200 nM; in assay [4], 50 to 500 nM; in assay [2], 50 to 500 nM; in assay [3] it was 50 to 500 nM.

With `CN(C)C(=O)c1ccc(NC(=O)Nc2ccc(-c3nc(N4CCOCC4)c4ccc(-c5cncnc5)cc4n3)cc2)c(F)c1`, the IC50 in assay [1] was below 50 nM; in assay [4], 50 to 500 nM; in assay [5], below 500 nM; in assay [2], 50 to 500 nM; in assay [3], 50 to 500 nM.

On to `CN(C)C(=O)c1ccc(NC(=O)Nc2ccc(-c3nc(N4CCOCC4)c4ccc(-c5cccnc5F)cc4n3)cn2)cc1`, for which the IC50 in assay [1] is below 50 nM; in assay [4] it was below 50 nM; in assay [5], below 500 nM; in assay [2], below 50 nM; in assay [3], below 50 nM.

Take `CN(C)C(=O)c1ccc(NC(=O)Nc2ccc(-c3nc(N4CCOCC4)c4ccc(-c5cccc(S(C)(=O)=O)c5)cc4n3)cn2)cc1`: the IC50 was below 50 nM in assay [1]; below 50 nM in assay [4]; below 500 nM in assay [5]; below 50 nM in assay [2]; below 50 nM in assay [3].

As for `CN(C)C(=O)c1ccc(NC(=O)Nc2ccc(-c3nc(N4CCOCC4)c4ccc(-c5cccnc5)cc4n3)cc2)c(F)c1`, the IC50 in assay [1] is below 50 nM; in assay [4], 50 to 500 nM; in assay [5] it was below 500 nM; in assay [2], 50 to 500 nM; in assay [3], 50 to 500 nM.

Turning to `CN(C)C(=O)c1ccc(NC(=O)Nc2ccc(-c3nc(N4CCOCC4)c4ncc(-c5cccnc5F)cc4n3)cn2)cc1`, the IC50 in assay [1] is below 50 nM; in assay [4], below 50 nM; in assay [5] it was below 500 nM; in assay [2], below 50 nM; in assay [3], below 50 nM.

In the case of `CN(C)C(=O)c1ccc(NC(=O)Nc2ccc(-c3nc(N4CCOCC4)c4ccc(-c5ccco5)cc4n3)cc2)cc1`, the IC50 in assay [1] is below 50 nM; in assay [4] it was below 50 nM; in assay [5], below 500 nM; in assay [2], below 50 nM; in assay [3], below 50 nM.

As for `COc1ccc(-c2ccc3c(N4CCOCC4)nc(-c4ccc(NC(=O)Nc5ccc(C(=O)N(C)C)cc5)cc4F)nc3c2)cn1`, the IC50 in assay [1] was in the range of 50 to 200 nM.

In the case of `COc1cccc(-c2ccc3c(N4CCOCC4)nc(-c4ccc(NC(=O)Nc5ccc(C(=O)N(C)C)cc5)cc4)nc3c2)c1`, the IC50 in assay [1] is 50 to 200 nM.

Turning to `Cc1ccc(-c2ccc3c(N4CCOCC4)nc(-c4ccc(NC(=O)Nc5ccc(C(=O)N(C)C)cc5)cc4F)nc3c2)cn1`, the IC50 in assay [1] was below 50 nM.

The compound `Cc1noc(C)c1-c1ccc2c(N3CCOCC3)nc(-c3ccc(NC(=O)Nc4ccc(C(=O)N(C)C)cc4)cc3F)nc2c1` had an IC50 in assay [1] of 50 to 200 nM.

In assay [1], `CN(C)C(=O)c1ccc(NC(=O)Nc2ccc(-c3nc(N4CCOCC4)c4cc(F)c(-c5cncnc5)cc4n3)cn2)cc1` yielded an IC50 below 50 nM.

In the case of `CN(C)C(=O)c1ccc(NC(=O)Nc2ccc(-c3nc(N4CCOCC4)c4ncc(-c5cccc(S(C)(=O)=O)c5)cc4n3)cn2)cc1`, the IC50 was below 50 nM in assay [1]; below 50 nM in assay [4]; below 500 nM in assay [5]; below 50 nM in assay [2]; below 50 nM in assay [3].

`CN(C)C(=O)c1ccc(NC(=O)Nc2ccc(-c3nc(N4CCOCC4)c4ncc(-c5cncnc5)cc4n3)cc2F)cc1` had an IC50 in assay [1] below 50 nM.

Consider `Cc1ccncc1-c1cnc2c(N3CCOCC3)nc(-c3ccc(NC(=O)Nc4ccc(C(=O)N(C)C)cc4)c(F)c3)nc2c1`, for which the 50% inhibitory concentration (IC50) in assay [1] is 50 to 200 nM.

`COc1ncc(-c2cnc3c(N4CCOCC4)nc(-c4ccc(NC(=O)Nc5ccc(C(=O)N(C)C)cc5F)cc4)nc3c2)cn1` gave an IC50 in assay [1] below 50 nM.

Consider `CN(C)C(=O)c1ccc(NC(=O)Nc2ccc(-c3nc(N4CCOCC4)c4ccc(-c5ccncc5)cc4n3)cc2)cc1`, for which the IC50 in assay [1] is below 50 nM.

The compound `CN(C)C(=O)c1ccc(NC(=O)Nc2ccc(-c3nc(N4CCOCC4)c4ccc(-c5cnn(C)c5)cc4n3)cc2)cc1` displayed an IC50 in assay [1] below 50 nM.

Regarding `CN(C)C(=O)c1ccc(NC(=O)Nc2ccc(-c3nc(N4CCOCC4)c4ccc(-c5ccc(C(=O)N(C)C)o5)cc4n3)cc2)cc1`, the IC50 in assay [1] is below 50 nM.

`CN(C)C(=O)c1ccc(NC(=O)Nc2ccc(-c3nc(N4CCOCC4)c4ccc(-c5ccccn5)cc4n3)c(F)c2)cc1` showed an IC50 in assay [1] below 50 nM.

For the compound `CN(C)CCNC(=O)c1ccc2c(N3CCOCC3)nc(-c3ccc(NC(=O)Nc4ccc(C(=O)N(C)C)cc4)cc3)nc2c1`, the IC50 in assay [1] fell in the range of 50 to 200 nM.

`CN(C)C(=O)c1ccc(NC(=O)Nc2ccc(-c3nc(N4CCOCC4)c4ncc(-c5cccc(S(C)(=O)=O)c5)cc4n3)cc2)cc1`: the IC50 in assay [1] is below 50 nM.

With `Cc1ccc(-c2ccc3c(N4CCOCC4)nc(-c4ccc(NC(=O)Nc5ccc(C(=O)N(C)C)nc5)c(F)c4)nc3c2)o1`, the IC50 in assay [1] lay within 50 to 200 nM.

In assay [1], `Cc1ccc(-c2ccc3c(N4CCOCC4)nc(-c4ccc(NC(=O)Nc5ccc(C(=O)N(C)CCN(C)C)cc5)cc4)nc3c2)o1` gave an IC50 below 50 nM.

Turning to `Cc1noc(C)c1-c1cnc2c(N3CCOCC3)nc(-c3ccc(NC(=O)Nc4ccc(C(=O)N(C)C)cc4)cc3)nc2c1`, the 50% inhibitory concentration (IC50) in assay [1] was below 50 nM.

For the compound `Cc1ccc(-c2ccc3c(N4CCOCC4)nc(-c4ccc(NC(=O)Nc5ccc(C(=O)N(C)C)cc5F)cc4)nc3c2)cn1`, in assay [1], the IC50 is below 50 nM.

In the case of `CN1CCN(C(=O)c2ccc(NC(=O)Nc3ccc(-c4nc(N5CCOCC5)c5ccc(-c6cccnc6)cc5n4)cc3)cc2)CC1`, the IC50 in assay [1] is below 50 nM.

In assay [1], `CN(C)C(=O)c1ccc(NC(=O)Nc2ccc(-c3nc(N4CCOCC4)c4cc(F)c(-c5cccnc5)cc4n3)cc2F)cc1` had an IC50 of 50 to 200 nM.

Consider `CN(C)C(=O)c1ccc(NC(=O)Nc2ccc(-c3nc(N4CCOCC4)c4ncc(-c5cccc(S(C)(=O)=O)c5)cc4n3)cc2F)cc1`, for which the IC50 is below 50 nM in assay [1]; 50 to 500 nM in assay [4]; below 500 nM in assay [5]; below 50 nM in assay [2]; below 50 nM in assay [3].

The compound `Cc1ccc(-c2ccc3c(N4CCOCC4)nc(-c4ccc(NC(=O)Nc5ccc(C(=O)N6CC[C@@H](N(C)C)C6)cc5)cc4)nc3c2)o1` had an IC50 in assay [1] of 50 to 200 nM.

The compound `CN(C)C(=O)c1ccc(NC(=O)Nc2ccc(-c3nc(N4CCOCC4)c4ccc(-c5cnn(C)c5)cc4n3)cn2)cc1` yielded an IC50 in assay [1] below 50 nM.

Compound `CN(C)C(=O)c1ccc(NC(=O)Nc2ccc(-c3nc(N4CCOCC4)c4ccc(-c5cncnc5)cc4n3)c(F)c2F)cc1` came in with an IC50 in assay [1] of 50 to 200 nM.

In assay [1], `CN(C)C(=O)c1ccc(NC(=O)Nc2ccc(-c3nc(N4CCOCC4)c4ncc(-c5cnn(C)c5)cc4n3)cc2F)cn1` had an IC50 below 50 nM.

`CN(C)C(=O)c1ccc(NC(=O)Nc2ccc(-c3nc(N4CCOCC4)c4ccc(-c5cccc(F)c5)cc4n3)cc2)cc1` showed an IC50 in assay [1] of 50 to 200 nM.

With `Cc1ccc(-c2cnc3c(N4CCOCC4)nc(-c4ccc(NC(=O)Nc5ccc(C(=O)N(C)C)cc5)cc4)nc3c2)o1`, the IC50 in assay [1] is below 50 nM.

`CN(C)C(=O)c1ccc(NC(=O)Nc2ccc(-c3nc(N4CCOCC4)c4ccc(-c5cnc(N(C)C)nc5)cc4n3)cc2)cc1` came in with an IC50 in assay [1] below 50 nM.

On to `CN(C)C(=O)c1ccc(NC(=O)Nc2ccc(-c3nc(N4CCOCC4)c4ccc(-c5ccc(C(C)(C)O)o5)cc4n3)cc2)cc1`, for which, in assay [1], the IC50 was below 50 nM.
